Earlier results on one compound are cited in US9125936B2, “Ginger extract for the protection of stem cells” (Symrise AG, priority 2013, dated 2015).

For the data set the following is noted: water (20° dH) at 20° C.; solid active agent.

With `Nc1nc2c(ncn2COCCO)c(=O)[nH]1` [Acyclovir, 2-Amino-1,9-dihydro-9-((2-hydroxyethoxy)methyl)-6H-Purin-6-one], the solubility in water result is “less than 5 g/L”.
